According to publication PMC3700073, “Synthesis and Biological Activity of New Thiopyrano[2,3-d]thiazoles Containing a Naphthoquinone Moiety” (Scientia Pharmaceutica, 2013):
Where two headings read alike, the source gives them in different places.

What was measured:
[1] = tested on: HCC-2998 (colon cancer); assay: NCI five-dose assay; format: cell-based; conditions: Homo sapiens, HCC 2998, HCC-2998, colon cancer
[2] = tested on: HS 578T (breast cancer); assay: NCI five-dose assay; format: cell-based, human; conditions: for GI50: Homo sapiens, Hs-578T, HS 578T, breast cancer
[3] = tested on: NCI-H23 (NSCL cancer); assay: NCI five-dose assay; format: cell-based; conditions: Homo sapiens
[4] = tested on: U251 (CNS cancer); assay: NCI five-dose assay; format: cell-based; conditions: Homo sapiens, U-251, U251, CNS cancer
[5] = tested on: NCI-H460 (NSCL cancer); assay: NCI five-dose assay; format: cell-based; conditions: Homo sapiens
[6] = tested on: MDA-MB-468 (breast cancer); assay: NCI five-dose assay; format: cell-based; conditions: Homo sapiens, repeated testing
[7] = tested on: RXF-393 (renal cancer); assay: NCI five-dose assay; format: cell-based; conditions: Homo sapiens
[8] = tested on: OVCAR-8 (ovarian cancer); assay: NCI five-dose assay; format: cell-based; conditions: Homo sapiens, OVCAR-8, OVCAR-8, ovarian cancer
[9] = tested on: 60 cancer cell lines; assay: NCI single-concentration screen, 60 cancer cell lines; format: cell-based, human; conditions: single concentration 10^−5 M
[10] = tested on: SW-620 (colon cancer); assay: NCI five-dose assay; format: cell-based; conditions: Homo sapiens, SW-620, SW-620, colon cancer
[11] = tested on: SF-295 (CNS cancer); assay: NCI single-concentration screen; format: cell-based, human; conditions: 10^−5 M
[12] = tested on: MCF-7 (breast cancer); assay: NCI five-dose assay; format: cell-based; conditions: Homo sapiens, MCF7, MCF-7, breast cancer
[13] = tested on: HL-60(TB) (leukemia); assay: NCI five-dose assay; format: cell-based; conditions: Homo sapiens, HL-60, HL-60(TB)
[14] = tested on: HCT-15 (colon cancer); assay: NCI five-dose assay; format: cell-based; conditions: Homo sapiens, HCT-15, HCT-15, colon cancer
[15] = tested on: UACC-257 (melanoma); assay: NCI five-dose assay; format: cell-based, human; conditions: for GI50: Homo sapiens, UACC-257, UACC-257, melanoma
[16] = tested on: T-47D (breast cancer); assay: NCI five-dose assay; format: cell-based; conditions: Homo sapiens, T47D
[17] = tested on: (melanoma); assay: NCI single-concentration screen; format: cell-based, human; conditions: SK-MEL-25 (melanoma), 10^−5 M
[18] = tested on: PC-3 (prostate cancer); assay: NCI five-dose assay; format: cell-based; conditions: Homo sapiens
[19] = tested on: COLO 205 (colon cancer); assay: NCI five-dose assay; format: cell-based; conditions: Homo sapiens, COLO 205, COLO 205, colon cancer
[20] = tested on: HCT-116 (colon cancer); assay: NCI five-dose assay; format: cell-based; conditions: Homo sapiens, HCT-116, HCT-116, colon cancer
[21] = tested on: HOP-92 (NSCL cancer); assay: NCI five-dose assay; format: cell-based; conditions: Homo sapiens, HOP-92, HOP-92, NSCL cancer
[22] = tested on: SK-MEL-28 (melanoma); assay: NCI five-dose assay; format: cell-based; conditions: Homo sapiens, SK-MEL-28, SK-MEL-28, melanoma
[23] = tested on: SF-539 (CNS cancer); assay: NCI five-dose assay; format: cell-based; conditions: Homo sapiens, SF-539, SF-539, CNS cancer
[24] = tested on: MDA-MB-435 (breast cancer); assay: NCI single-concentration screen; format: cell-based, human; conditions: 10^−5 M
[25] = tested on: 60 cancer cell lines; conditions: over the cell line panel
[26] = tested on: SNB-75 (CNS cancer); assay: NCI five-dose assay; format: cell-based; conditions: Homo sapiens, SNB-75, SNB-75, CNS cancer
[27] = tested on: K-562 (leukemia); assay: NCI five-dose assay; format: cell-based; conditions: Homo sapiens, K562, K-562, leukemia
[28] = tested on: EKVX (NSCL cancer); assay: NCI five-dose assay; format: cell-based; conditions: Homo sapiens
[29] = tested on: SNB-19 (CNS cancer); assay: NCI five-dose assay; format: cell-based; conditions: Homo sapiens, SNB-19, SNB-19, CNS cancer
[30] = tested on: MALME-3M (melanoma); assay: NCI five-dose assay; format: cell-based; conditions: Homo sapiens
[31] = tested on: NCI-H226 (NSCL cancer); assay: NCI five-dose assay; format: cell-based; conditions: Homo sapiens
[32] = tested on: Mycobacterium tuberculosis H37Rv strain (ATCC 27294); assay: Antimycobacterial pre-screening at 6.25 μg/mL (BACTEC 460 radiometric system); format: cell-based; conditions: M. tuberculosis H37Rv; for inhibition at 6.25 µg/mL: 6.25 μg/mL; for MIC90: pre-screening, read-out: Estimation of MIC90
[33] = tested on: SK-MEL-5 (melanoma); assay: NCI single-concentration screen; format: cell-based, human; conditions: 10^−5 M
[34] = tested on: MALME-3M (melanoma); assay: NCI single-concentration screen; format: cell-based, human; conditions: 10^−5 M
[35] = tested on: M14 (melanoma); assay: NCI single-concentration screen; format: cell-based, human; conditions: 10^−5 M

SMILES: COc1cc(C2C3=C(Sc4[nH]c(=O)sc42)C(=O)c2ccccc2C3=O)ccc1O (centres unmarked) [Compound 4i, 11-(4-Hydroxy-3-methoxyphenyl)-3,11-dihydro-2H-benzo[6,7]thiochromeno[2,3-d]-[1,3]thiazole-2,5,10-trione]
- GI50 [1]: 3.77 µM
- GI50 ([1]; repeated testing): 3.24 µM
- TGI of the most sensitive cell line ([2]; HS 578T /breast cancer/): 0.27 / 1.09 μM
- GI50 [2]: 0.27 µM
- GI50 ([2]; repeated testing): 0.65 µM
- GI50 [3]: 0.95 µM
- GI50 ([3]; repeated testing): 0.41 µM
- GI50 [4]: 1.63 µM
- GI50 ([4]; repeated testing): 2.21 µM
- GI50 [5]: 1.92 µM
- GI50 ([5]; repeated testing): 1.66 µM
- GI50 [6]: 1.75 µM
- GI50 [7]: 2.52 µM
- GI50 [8]: 2.85 µM
- GI50 ([8]; repeated testing): 2.05 µM
- Mean growth % [9]: 17.75%
- GI50 [10]: 2.82 µM
- GI50 ([10]; repeated testing): 3.23 µM
- Growth % of the most sensitive cell line [11]: −50.25%
- GI50 [12]: 1.07 µM
- GI50 ([12]; repeated testing): 2.26 µM
- GI50 [13]: 2.01 µM
- GI50 ([13]; repeated testing): 1.26 µM
- GI50 [14]: 2.07 µM
- GI50 ([14]; repeated testing): 1.74 µM
- GI50 [15]: 1.31 µM
- GI50 ([15]; repeated testing): 0.22 µM
- TGI of the most sensitive cell line ([15]; UACC-257 /melanoma/, repeated testing): (0.22 / 1.82) μM
- GI50 [16]: 2.56 µM
- Growth % of the most sensitive cell line [17]: −74.12%
- GI50 [18]: 1.98 µM
- GI50 ([18]; repeated testing): 2.57 µM
- GI50 [19]: 2.08 µM
- GI50 ([19]; repeated testing): 1.68 µM
- GI50 [20]: 3.36 µM
- GI50 ([20]; repeated testing): 2.46 µM
- GI50 [21]: 1.44 µM
- GI50 ([21]; repeated testing): 2.15 µM
- GI50 [22]: 1.79 µM
- GI50 ([22]; repeated testing): 1.41 µM
- GI50 [23]: 3.26 µM
- GI50 ([23]; repeated testing): 3.46 µM
- Growth % of the most sensitive cell line [24]: −48.22%
- TGI MG_MID [25]: 10.96 µM
- TGI MG_MID ([25]; repeated testing): (8.51) μM
- GI50 [26]: 1.26 µM
- GI50 ([26]; repeated testing): 0.67 µM
- GI50 ([27]; repeated testing): 1.98 µM
- GI50 ([27]; result printed as symbol): > 100 µM
- GI50 [28]: 3.24 µM
- GI50 ([28]; repeated testing): 4.03 µM
- GI50 [29]: 2.41 µM
- GI50 ([29]; repeated testing): 2.85 µM
- GI50 [30]: 0.72 µM
- GI50 ([30]; repeated testing): 1.05 µM
- GI50 [31]: 1.74 µM
- GI50 ([31]; repeated testing): 2.85 µM

SMILES: COc1ccc(C2C3=C(Sc4[nH]c(=O)sc42)C(=O)c2ccccc2C3=O)cc1OC (centres unmarked) [Compound 4f, 11-(3,4-Dimethoxyphenyl)-3,11-dihydro-2H-benzo[6,7]thiochromeno[2,3-d][1,3]thiazole-2,5,10-trione]
- inhibition at 6.25 µg/mL [32]: 0%
- MIC90 [32]: > 6.25 µg/mL
- GI50 [2]: 3.71 µM
- GI50 [3]: 1.68 µM
- Growth % of the most sensitive cell line [33]: −96.40%
- GI50 [4]: 4.27 µM
- GI50 [5]: 2.18 µM
- GI50 [7]: 2.27 µM
- GI50 [8]: 4.02 µM
- Mean growth % [9]: 1.77%
- GI50 [10]: 3.96 µM
- GI50 [12]: 2.25 µM
- GI50 [13]: 1.98 µM
- GI50 [14]: 3.51 µM
- GI50 [15]: 6.13 µM
- GI50 [16]: 3.42 µM
- GI50 [18]: 5.41 µM
- GI50 [19]: 3.37 µM
- GI50 [20]: 3.47 µM
- GI50 [21]: 5.26 µM
- GI50 [22]: 6.22 µM
- GI50 [23]: 3.17 µM
- TGI MG_MID [25]: 14.79 µM
- GI50 [26]: 6.64 µM
- Growth % of the most sensitive cell line [34]: −66.70%
- GI50 [27]: 4.97 µM
- GI50 [28]: 4.97 µM
- GI50 [29]: 4.49 µM
- GI50 [30]: 2.12 µM
- GI50 [31]: 5.43 µM
- Growth % of the most sensitive cell line [35]: −80.36%

SMILES: COc1cc(C2C3=C(Sc4[nH]c(=O)sc42)C(=O)c2ccccc2C3=O)ccc1OCc1ccccc1 (centres unmarked) [Compound 4e, 11-[4-(Benzyloxy)-3-methoxyphenyl]-3,11-dihydro-2H-benzo[6,7]thiochromeno[2,3-d]-[1,3]thiazole-2,5,10-trione]
- inhibition at 6.25 µg/mL [32]: 15%
- MIC90 [32]: > 6.25 µg/mL
- GI50 [1]: 16.6 µM
- GI50 [2]: 4.52 µM
- GI50 [3]: 3.99 µM
- GI50 [4]: 15.1 µM
- GI50 [5]: 5.39 µM
- GI50 [7]: 6.98 µM
- GI50 [8]: 13.9 µM
- GI50 [10]: 22.7 µM
- GI50 [12]: 12.9 µM
- GI50 [13]: 15.2 µM
- GI50 [14]: 11.5 µM
- GI50 [15]: 11.3 µM
- GI50 [16]: 16.1 µM
- GI50 [18]: 17.7 µM
- GI50 [19]: 10.3 µM
- GI50 [20]: 15.6 µM
- GI50 [21]: 11.5 µM
- GI50 [22]: 12.2 µM
- GI50 [23]: 16.7 µM
- TGI MG_MID [25]: 40.74 µM
- GI50 [26]: 7.76 µM
- GI50 [27]: 19.4 µM
- GI50 [28]: 16.3 µM
- GI50 [29]: 11.3 µM
- GI50 [30]: 7.12 µM
- GI50 [31]: 19.2 µM
